Source: patent publication US6025330A, “Inhibitors of fibrin cross-linking and/or transglutaminases” (BioPharm Research & Development Ltd., priority 1995, dated 2000)
One block for each compound: values may come before it. No end group written: not given here.

How the values were obtained:
[1] = molecular target: T1, human plasma factor XIIIa (Homo sapiens, UniProt P00488); assay: production of ammonia from casein on ethylamine incorporation (glutamate dehydrogenase/NADH coupled); format: biochemical; conditions: control 4.14
T1 construct: from tissue; host or cells: human plasma (defibrinogenated, not purified further)
T1 sequence (P00488 39-732 limits assumed): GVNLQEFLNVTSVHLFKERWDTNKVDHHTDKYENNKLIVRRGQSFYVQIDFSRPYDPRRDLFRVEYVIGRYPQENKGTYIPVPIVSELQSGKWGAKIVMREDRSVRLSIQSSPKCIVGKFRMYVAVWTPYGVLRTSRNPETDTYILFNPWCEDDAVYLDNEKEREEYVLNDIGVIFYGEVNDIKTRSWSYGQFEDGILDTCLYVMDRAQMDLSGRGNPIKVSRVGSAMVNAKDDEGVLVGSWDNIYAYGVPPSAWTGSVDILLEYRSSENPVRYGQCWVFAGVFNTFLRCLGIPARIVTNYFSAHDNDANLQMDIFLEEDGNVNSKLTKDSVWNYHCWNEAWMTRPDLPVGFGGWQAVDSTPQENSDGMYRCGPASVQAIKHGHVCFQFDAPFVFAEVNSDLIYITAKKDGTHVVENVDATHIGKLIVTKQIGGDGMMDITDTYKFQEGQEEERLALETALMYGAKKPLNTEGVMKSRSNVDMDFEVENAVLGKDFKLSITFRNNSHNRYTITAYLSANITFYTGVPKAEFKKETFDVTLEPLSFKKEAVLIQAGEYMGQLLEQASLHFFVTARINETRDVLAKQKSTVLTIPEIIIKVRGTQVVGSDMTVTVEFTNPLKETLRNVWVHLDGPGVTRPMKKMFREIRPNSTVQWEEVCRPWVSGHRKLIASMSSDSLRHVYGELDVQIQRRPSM
Description: The transglutaminase activity of human plasma factor XIIIa was measured spectrophotometrically by a modification of the method of Muszbek, Polgar and Fesus; "Kinetic determination of blood coagulation factor XIII in plasma." Clin Chem 31 (1985) pp. 35-40. This method measures the production of ammonia by linking it through the glutamate dehydrogenase reaction to NADH oxidation which can be monitored by the change in absorption at 340 nm. Factor XIII was activated by incubating defibrinated human plasma (2 ml) and 200 mM CaCl2 (0.1 ml) with 1000 unit/ml bovine thrombin (0.1 ml) at 37° C. After 15 min the reaction was stopped by the addition of 260 antithrombin units of hirudin. The reaction cuvette contained: 2.5 mM dithiothreitol (0.1 ml), 40 mg/ml dephosphorylated β-casein (0.05 ml), 70 mM ethylamine (0.1 ml), 12 mM sodium 2-ketoglutarate (0.1 ml), 4 mM NADH (0.1 ml), 1.2 mM ADP (0.1 ml), 40 unit/ml glutamate dehydrogenase (0.1 ml), 70 mM HEPES buffer pH7.5 (0.25 ml) and this was placed in a spectrophotometer at 20° C. All components were dissolved in 70 mM HEPES buffer pH 7.5 where possible. The reaction was started by the addition of the activated factor XIII (0.2 ml) and monitored at 340 nm. The assay was validated with the use of factor XIII-deficient plasma (Sigma).
Test samples were added in 0.1 ml of the HEPES buffer to the reaction cuvette. […]

[2] = system: factor XIIIa; assay: clot solubility assay (fibrin clot in urea); format: biochemical, bovine; conditions: iodoacetamide 100 μM, lowered absorbance = clot soluble in urea
Description: In a first experiment A, the proboscis, anterior and posterior salivary glands of a leech of the species Haementeria ghilianii were homogenised together in a Potter homogeniser in 10 mM Tris HCl, 0.85% w/v NaCl pH7.0 (1 ml), and centrifuged at 13000 rpm. The supernatant was assayed in a clot solubility assay similar to that of Tymiak, Tuttle, Kimball, Wang and Lee "A simple and rapid screen for inhibitors of factor XIIIa". J. Antibiotics 46 (1993) pp. 204-206. In a second experiment B, the proboscis, anterior and posterior salivary glands were dissected from a leech of the species Haementeria ghilianii and homogenised separately in 0.2 ml aliquots of the buffer. The effect was compared with extracts of the proboscis, anterior and posterior salivary glands from two leeches of the species Haementeria officinalis prepared in 0.2 ml buffer. The test samples (30 μl) were added to a solution of 10 mg/ml crude bovine fibrinogen which contains factor XIII (30 μl). The reaction was started by adding 6.25 units/ml bovine thrombin containing 9 mM CaCl2 (40 μl). A clot formed in 15 min when 8M urea (160 μl) was added and left in contact with the clot. After 30 min, the absorbance resulting from the clot's opalescence was read at 405 nm. Lowered absorbance indicates solubility of the clot resulting from inhibition of cross-linking. […] The numerical values quoted in the table are absorbance at 405 nm.

[3] = system: thrombin; assay: thrombin chromogenic substrate assay (S2238); format: biochemical; conditions: 0.046 μg/ml
Description: (§1) The effect of Tridegin variant 1 purified as in Example 6 was tested on the coagulation enzyme, thrombin. with a chromogenic substrate assay. 1 mM S2238 was incubated in 50 mM Tris HCl pH 8.3 and the reaction was started by adding thrombin 0.15 U/ml final concentration. The reaction was monitored in a spectrophotometer at 405 nm.

[4] = molecular target: human factor Xa (Homo sapiens, UniProt P00742); assay: factor Xa chromogenic substrate assay (S2765); format: biochemical; conditions: 0.046 μg/ml
Description: as §1
The effect of the Tridegin purified as in Example 6 was tested on factor Xa. 2 mM S2765 was incubated in 50 mM Tris HCl pH 8.3 and the reaction was started by adding human factor Xa. The assay was performed as in Example 11. […] This confirms that, not only is the transglutaminase inhibitor different from previously known inhibitors of factor Xa, but the methods exemplified to purify the transglutaminase inhibitor successfully remove the factor Xa inhibitors.

human factor Xa, sequence (P00742 41-179 limits assumed): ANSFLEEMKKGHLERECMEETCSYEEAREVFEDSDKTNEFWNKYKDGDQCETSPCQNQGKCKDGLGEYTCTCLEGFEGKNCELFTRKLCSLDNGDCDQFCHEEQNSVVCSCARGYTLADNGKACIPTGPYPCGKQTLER
human factor Xa, sequence (P00742 235-488 limits assumed): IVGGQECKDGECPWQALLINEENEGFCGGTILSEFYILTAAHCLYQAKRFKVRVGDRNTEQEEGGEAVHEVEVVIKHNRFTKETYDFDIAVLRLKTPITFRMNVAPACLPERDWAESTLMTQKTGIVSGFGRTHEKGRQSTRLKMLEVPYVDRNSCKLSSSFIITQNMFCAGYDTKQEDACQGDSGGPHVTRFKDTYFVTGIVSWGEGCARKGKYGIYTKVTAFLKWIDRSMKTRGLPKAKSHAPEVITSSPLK

Change in absorbance ([1]; 77 mM in cuvette): 0.024 mAbs/min
Compound: O=C(O)CN(CCOCCOCCN(CC(=O)O)CC(=O)O)CC(=O)O [EGTA]

Compound: NC(=O)CI [Iodoacetamide]
Change in absorbance ([1]; 0.077 mM in cuvette): 0.356 mAbs/min
absorbance at 405 nm, Experiment A ([2]; Tris buffer 0.74): 0.26
absorbance at 405 nm, Experiment B ([2]; Tris buffer 0.83): 0.42

Compound: Hirudin
inhibitory effect on thrombin [3]: 95%
Rate of Reaction ([3]; control 49.8): 2.63 mAbs/min

inhibition of factor Xa [4]: 89.9%
Reaction Rate ([4]; control 49.8): 5.53 mAbs/min
Compound: rTAP: recombinant tick anticoagulant peptide, a known inhibitor of factor Xa (YNRLCIKPRDWIDECDSNEGGERAYFRNGKGGCDSFWICPEDHTGADYYSSYRDCFNACI; ends and bridges not checked; cysteine pairing not given here; UniProt P17726 1-60, looked up)
